Results taken from patent publication US8044100B2, “Methods and compositions for treating amyloid-related diseases” (Bellus Health Inc., priority 2004, dated 2011).

Test system: Aβ peptides (Aβ40, Aβ42) in the plasma and brain of TgCRND8 mice
Experiment: Short term treatment (14 or 28 days) in TgCRND8 mice: Aβ levels in plasma and brain by ELISA;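 as to Aβ40 Change Insoluble: symbols grade percent change in Aβ versus untreated control with plus for increase and minus for decrease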;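 as to Aβ40 Change Soluble: symbols grade percent change in Aβ versus untreated control with plus for increase and minus for decrease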;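 as to Aβ42 Change Insoluble: symbols grade percent change in Aβ versus untreated control with plus for increase and minus for decrease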
Format: in vivo, mouse
Settings: for Aβ42 Change / Aβ40 Change: plasma
Procedure: The short term therapeutic effect of 19 compounds of the invention was studied. These compounds were administered over a 14 or 28 day period at the end of which the levels of Aβ peptides in the plasma and brain of TgCRND8 animals were determined.
Male and female transgenic mice from the 3rd and 4th B6C3F1 generations were used in this example and given daily subcutaneous or oral administrations of one of a series of compounds for 14 or 28 days. The following abbreviations are used to designate these animals from the 3rd and 4th generation backcross in the present protocol: TgCRND8-2.B6C3F1(N3); TgCRND8-2.B6C3F1 (N4).
Baseline animals (Group 1) consisted of naive TgCRND8-2. B6C3F1(N3) at 11±1 weeks of age. These mice were used to determine the Aβ levels in the plasma and brain of naive transgenic animals at the initiation of treatment.
Starting at 11 weeks of age (±1 week) animals received daily administration of their respective treatment for a period of 14 or 28 days (groups 2-21), at a dose of 250 mg/kg at 10 ml/kg or of vehicle only (water; group 2) or 1% methyl cellulose only (group 21). The route of administration was subcutaneous for water-soluble compounds and oral for compounds solubilized in methylcellulose 1%. (MC 1%). At the end of the treatment periods, plasma and perfused brains were collected for quantification of Aβ levels.
At 11±1 weeks of age for the Baseline group, and at the end of the treatment period (14 or 28 days) for Groups 2 to 21, at 24 hours after the last compound administration animals were sacrificed and samples collected. An approximate blood volume of 500 μl was collected from the orbital sinus and kept on ice until centrifugation at 4° C. at a minimum speed of 3,000 rpm for 10 minutes. Plasma samples were immediately frozen and stored at −80° C. pending analysis. The brains were removed, frozen, and stored at −80° C. awaiting analysis.
Brains were weighted frozen and homogenized with 4 volumes of ice cold 50 mM Tris-Cl pH 8.0 buffer with protease inhibitor cocktail (4 mL of buffer for 1 g of wet brain). Samples were spun at 15000 g for 20 minutes and the supernatants were transferred to fresh tubes. One hundred fifty (150) μl from each supernatant were mixed with 250 μl of 8M guanidine-HCL/50 mM Tris-HCL pH 8.0 (ratio of 0.6 vol supernatant:1 vol 8M guanidium/Tris-HCL 50 mM pH8.0) and 400 μL 5 M guanidium/Tris-HCL 50 mM pH8.0 were added. The tubes were vortexed for 30 seconds and frozen at −80° C. In parallel, pellets were treated with 7 volumes of 5 M guanidine-HCL/50 mM Tris-HCL pH 8.0 (7 mL of guanidine for 1 g of wet brain), vortexed for 30 seconds and frozen at −80° C. Samples were thawed at room temperature, sonicated at 80° C. for 15 minutes and frozen again. This cycle was repeated 3 times to ensure homogeneity and samples were returned to −80° C. pending analysis.
Aβ levels were evaluated in plasma and brain samples by ELISA using Human Aβ40 and Aβ42 Fluorometric ELISA kits from Biosource (Cat. No. 89-344 and 89-348) according to manufacturer's recommended procedures. In short, samples were thawed at room temperature, sonicated for 5 minutes at 80° C. (sonication for brain homogenates; no sonication for plasma samples) and kept on ice. Aβ peptides were captured using 100 μl of the diluted samples to the plate and incubated without shaking at 4° C. overnight. The samples were aspirated and the wells were rinsed 4 times with wash buffer obtained from the Biosource ELISA kit. The anti-Aβ40 or anti-Aβ42 rabbit polyclonal antiserum (specific for the Aβ40 or Aβ42 peptide) was added (100 μl) and the plate was incubated at room temperature for 2 hours with shaking. The wells were aspirated and washed 4 times before adding 100 μl of the alkaline phosphatase labeled anti-rabbit antibody and incubating at room temperature for 2 hours with shaking. The plates were then rinsed 5 times and the fluorescent substrate (100 μl) was added to the plate. […]

[1] = brain homogenate, Day 14, methylcellulose group, daily oral
[2] = brain homogenate, Day 28, methylcellulose group, daily oral
[3] = brain homogenate, Day 14, vehicle group, 250 mg/kg daily
[4] = brain homogenate, Day 28, vehicle group, 250 mg/kg daily
[5] = brain homogenate, Day 28, vehicle group, 250 mg/kg daily, total, not soluble/insoluble
[6] = Day 14, vehicle (water) group, 250 mg/kg daily subcutaneous
[7] = Day 28, vehicle (water) group, 250 mg/kg daily subcutaneous

Row | Structure (SMILES) | Aβ40 Change Insoluble [3] | Aβ42 Change Insoluble [3] | Aβ42 Change Soluble [3] | Aβ40 Change Insoluble [4] | Aβ42 Change Insoluble [4] | Aβ40 Change Soluble [4] | Aβ42 Change Soluble [4] | further results
1 | CC12CC3CC(C)(C1)CC(NCCCS(=O)(=O)O)(C3)C2 [CY] |  |  |  |  |  |  |  | Aβ40 Change Soluble [1]: − (Decreases in the levels of Aβ of 5 to 19%); Aβ42 Change Insoluble [1]: ++ (increases of 40 to 69%); Aβ42 Change Soluble [1]: +++ (increases of 70% or higher); Aβ40 Change Insoluble [2]: +++ (increases of 70% or higher); Aβ40 Change Soluble [2]: ++ (increases of 40 to 69%); Aβ42 Change Insoluble [2]: + (increases in the levels of Aβ (relative to untreated control) of 20 to 39%); Aβ42 Change Soluble [2]: +++ (increases of 70% or higher); Aβ42 Change (Day 28, methylcellulose group, daily oral): + (increases in the levels of Aβ (relative to untreated control) of 20 to 39%)
2 | CC(C)(CO)NCCCS(=O)(=O)O [DH] | −− (decreases of 20 to 38%) | −−− (decreases of 39% or more) | −−− (decreases of 39% or more) | − (Decreases in the levels of Aβ of 5 to 19%) | − (Decreases in the levels of Aβ of 5 to 19%) |  |  | 
3 | CC(C)(NCCCS(=O)(=O)O)c1ccccc1 [DM] | + (increases in the levels of Aβ (relative to untreated control) of 20 to 39%) | − (Decreases in the levels of Aβ of 5 to 19%) | − (Decreases in the levels of Aβ of 5 to 19%) | −− (decreases of 20 to 38%) | −− (decreases of 20 to 38%) | − (Decreases in the levels of Aβ of 5 to 19%) | −− (decreases of 20 to 38%) | 
4 | CCNCCCS(=O)(=O)O [CV] |  |  |  |  |  |  |  | Aβ40 Change (total level) (brain homogenate, Day 14, vehicle group, 250 mg/kg daily, total, not soluble/insoluble): − (Decreases in the levels of Aβ of 5 to 19%); Aβ40 Change (total level) [5]: ++ (increases of 40 to 69%); Aβ42 Change (total level) [5]: +++ (increases of 70% or higher); Aβ40 Change [6]: + (increases in the levels of Aβ (relative to untreated control) of 20 to 39%); Aβ42 Change [6]: ++ (increases of 40 to 69%); Aβ40 Change [7]: ++ (increases of 40 to 69%); Aβ42 Change [7]: ++ (increases of 40 to 69%)
5 | C#CC1(NCCCS(=O)(=O)O)CCCCC1 [DX] | −− (decreases of 20 to 38%) | − (Decreases in the levels of Aβ of 5 to 19%) |  | −− (decreases of 20 to 38%) | −− (decreases of 20 to 38%) |  | − (Decreases in the levels of Aβ of 5 to 19%) | 
6 | O=S(=O)(O)CCCNC1CC2CCC1C2 (centres unmarked) [BY] | +++ (increases of 70% or higher) |  | +++ (increases of 70% or higher) | +++ (increases of 70% or higher) | +++ (increases of 70% or higher) | + (increases in the levels of Aβ (relative to untreated control) of 20 to 39%) |  | Aβ40 Change Soluble [3]: +++ (increases of 70% or higher); Aβ40 Change [6]: + (increases in the levels of Aβ (relative to untreated control) of 20 to 39%); Aβ42 Change [6]: + (increases in the levels of Aβ (relative to untreated control) of 20 to 39%)
7 | CCC(CC)NCCCS(=O)(=O)O [DD] | − (Decreases in the levels of Aβ of 5 to 19%) |  |  | − (Decreases in the levels of Aβ of 5 to 19%) |  |  |  | 
8 | O=S(=O)(O)CCCNCC(O)c1ccccc1 (centres unmarked) [DY] | −− (decreases of 20 to 38%) | −− (decreases of 20 to 38%) |  | −−− (decreases of 39% or more) | −− (decreases of 20 to 38%) |  | − (Decreases in the levels of Aβ of 5 to 19%) | 
9 | COC[C@H](NCCCS(=O)(=O)O)[C@@H](O)c1ccccc1 [EG] | −− (decreases of 20 to 38%) | −− (decreases of 20 to 38%) | −− (decreases of 20 to 38%) | −− (decreases of 20 to 38%) | −− (decreases of 20 to 38%) |  |  | Aβ40 Change Soluble [3]: − (Decreases in the levels of Aβ of 5 to 19%)
10 | CC1CC(NCCCS(=O)(=O)O)CC(C)(C)C1 (centres unmarked) [ED] | + (increases in the levels of Aβ (relative to untreated control) of 20 to 39%) |  |  | −− (decreases of 20 to 38%) | − (Decreases in the levels of Aβ of 5 to 19%) | − (Decreases in the levels of Aβ of 5 to 19%) | − (Decreases in the levels of Aβ of 5 to 19%) | Aβ40 Change Soluble [3]: − (Decreases in the levels of Aβ of 5 to 19%)
11 | O=S(=O)(O)CC(O)CNC1CCCCC1 (centres unmarked) [DC] | −− (decreases of 20 to 38%) | −− (decreases of 20 to 38%) | + (increases in the levels of Aβ (relative to untreated control) of 20 to 39%) | + (increases in the levels of Aβ (relative to untreated control) of 20 to 39%) | +++ (increases of 70% or higher) | − (Decreases in the levels of Aβ of 5 to 19%) | ++ (increases of 40 to 69%) | Aβ40 Change [6]: ++ (increases of 40 to 69%); Aβ42 Change [6]: ++ (increases of 40 to 69%); Aβ40 Change [7]: ++ (increases of 40 to 69%)
12 | COc1ccc([C@H](C)NCCCS(=O)(=O)O)cc1 [DZ] |  | −− (decreases of 20 to 38%) |  | −− (decreases of 20 to 38%) | −− (decreases of 20 to 38%) | − (Decreases in the levels of Aβ of 5 to 19%) | −− (decreases of 20 to 38%) | 
